These results are taken from patent publication US10669242B2 (priority 2016, dated 2020).

Each structure is given as a SMILES string. Bounds are passed on as bounds.

For this assay, the target named is T1, recombinant glucosyltransferase domain of C. difficile Toxin B/TcdB (Clostridioides difficile, UniProt P18177).
T1 construct: 6-His (C); purchased R&D Systems 6246-GT
T1 sequence (P18177 1-543): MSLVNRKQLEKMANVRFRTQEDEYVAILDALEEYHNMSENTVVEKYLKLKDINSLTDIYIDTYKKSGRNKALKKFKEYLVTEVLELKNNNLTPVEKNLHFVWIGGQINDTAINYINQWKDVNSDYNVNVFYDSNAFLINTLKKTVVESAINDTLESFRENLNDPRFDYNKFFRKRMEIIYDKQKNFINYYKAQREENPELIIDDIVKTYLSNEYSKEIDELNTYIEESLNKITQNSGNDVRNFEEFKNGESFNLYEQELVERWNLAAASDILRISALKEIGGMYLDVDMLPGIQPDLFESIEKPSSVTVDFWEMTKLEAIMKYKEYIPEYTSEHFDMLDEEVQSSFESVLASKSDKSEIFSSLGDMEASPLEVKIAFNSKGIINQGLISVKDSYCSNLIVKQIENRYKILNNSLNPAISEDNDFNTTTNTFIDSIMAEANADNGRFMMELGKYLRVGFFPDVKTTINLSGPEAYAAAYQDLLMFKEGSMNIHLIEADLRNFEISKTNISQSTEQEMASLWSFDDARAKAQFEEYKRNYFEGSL
Nature of the assay: biochemical.
The term IC50 denotes the point on the concentration scale where inhibition reaches its midpoint. Turning to `CN1CCN(CC(=O)Nc2cc(CN3C(=O)c4ccc(Cl)cc4NC(=O)[C@H]3Cc3ccccn3)ccc2C(=O)O)CC1` [Example 22j], the concentration for half-maximal inhibition (IC50) is 1000 to 10000 nM.
To `Cc1ccc(NC(=O)c2ccc(CN3C(=O)c4ccc(Cl)cc4NC(=O)[C@H]3CCN3CCNC(=O)C3)cc2)nc1` [Example 10e] belongs 1000 to 10000 nM; to `Cc1cnc(NC(=O)c2ccc(CN3C(=O)c4ccc(Cl)cc4NC(=O)[C@H]3Cc3ccccn3)cc2)s1` [Example 4bw, (R)-4-((8-chloro-2,5-dioxo-3-(pyridin-2-ylmethyl)-2,3-dihydro-1H-benzo[e][1,4]diazepin-4(5H)-yl)methyl)-N-(5-methylthiazol-2-yl)benzamide], < 100 nM; to `Cc1ccc2c(c1)NC(=O)[C@@H](Cc1ccc(Cl)c(Cl)c1)N(Cc1ccc(C(=O)Nc3ccccn3)cc1)C2=O` [Example 4ac, (R)-4-((3-(3,4-dichlorobenzyl)-8-methyl-2,5-dioxo-2,3-dihydro-1H-benzo[e][1,4]diazepin-4(5H)-yl)methyl)-N-(pyridin-2-yl)benzamide], 100 to 999 nM.
As for `O=C(Nc1ccc(CN2C(=O)c3ccc(Cl)cc3NC(=O)[C@H]2Cc2cccnc2)cc1)c1ccccn1` [Example 26a, (R)—N-(4-((8-Chloro-2,5-dioxo-3-(pyridin-3-ylmethyl)-2,3-dihydro-1H-benzo[e][1,4]diazepin-4(5H)-yl)methyl)phenyl)picolinamide], the IC50 was 100 to 999 nM.
As to `O=C(Nc1ccc(Cl)cn1)c1ccc(CN2C(=O)c3ccc(Cl)cc3NC(=O)[C@H]2Cc2cccnc2)cc1` [Example 5d, (R)-4-((8-chloro-2,5-dioxo-3-(pyridin-3-ylmethyl)-2,3-dihydro-1H-benzo[e][1,4]diazepin-4(5H)-yl)methyl)-N-(5-chloropyridin-2-yl)benzamide], the IC50 was < 100 nM.
As for `O=C(Nc1ccccn1)c1ccc(CN2C(=O)c3ccc(Cl)cc3NC(=O)[C@H]2CCc2ccccc2)cc1` [Example 4g, (R)-4-((8-chloro-2,5-dioxo-3-phenethyl-2,3-dihydro-1H-benzo[e][1,4]diazepin-4(5H)-yl)methyl)-N-(pyridin-2-yl)benzamide], the figure is 1000 to 10000 nM.
To `COc1ccc(NC(=O)c2ccc(CN3C(=O)c4ccc(Cl)cc4NC(=O)[C@H]3Cc3ccccn3)s2)nc1` [Example 4br, (R)-5-((8-chloro-2,5-dioxo-3-(pyridin-2-ylmethyl)-2,3-dihydro-1H-benzo[e][1,4]diazepin-4(5H)-yl)methyl)-N-(5-methoxypyridin-2-yl)thiophene-2-carboxamide] belongs 100 to 999 nM.
As for `Cc1cnc(NC(=O)c2ccc(CN3C(=O)c4ccc(Cl)cc4NC(=O)[C@H]3Cc3cccnc3)cc2)nc1` [Example 5h, (R)-4-((8-chloro-2,5-dioxo-3-(pyridin-3-ylmethyl)-2,3-dihydro-1H-benzo[e][1,4]diazepin-4(5H)-yl)methyl)-N-(5-methylpyrimidin-2-yl)benzamide], the figure is < 100 nM.
With `CC(=NO)NC(=O)c1ccc(CN2C(=O)c3ccc(Cl)cc3NC(=O)[C@H]2Cc2cccnc2)cc1` [Example 4bv, (R)-4-((8-chloro-2,5-dioxo-3-(pyridin-3-ylmethyl)-2,3-dihydro-1H-benzo[e][1,4]diazepin-4(5H)-yl)methyl)-N-(1-(hydroxyimino)ethyl)benzamide], the half-inhibitory concentration (IC50) is 100 to 999 nM.
As for `Cc1ccc(NC(=O)c2ccc(CN3C(=O)c4ccc(Cl)cc4NC(=O)C3Cc3cnccn3)cc2)nc1` (stereo not shown) [Example 5x, 4-((8-chloro-2,5-dioxo-3-(pyrazin-2-ylmethyl)-2,3-dihydro-1H-benzo[e][1,4]diazepin-4(5H)-yl)methyl)-N-(5-methylpyridin-2-yl)benzamide], the IC50 was < 100 nM.
As for `O=C(Nc1ccccn1)c1ccc(S(=O)(=O)N2Cc3ccc(Cl)cc3NC(=O)[C@H]2Cc2ccccn2)cc1` [Example 19b, (R)-4-((8-chloro-2-oxo-3-(pyridin-2-ylmethyl)-2,3-dihydro-1H-benzo[e][1,4]diazepin-4(5H)-yl)sulfonyl)-N-(pyridin-2-yl)benzamide], the figure is < 100 nM; as for `Cn1nccc1-c1cc(CN2C(=O)c3ccc(Cl)cc3NC(=O)[C@H]2Cc2ccccn2)ccc1C(=O)O` [Example 8s, (R)-4-((8-chloro-2,5-dioxo-3-(pyridin-2-ylmethyl)-2,3-dihydro-1H-benzo[e][1,4]diazepin-4(5H)-yl)methyl)-2-(1-methyl-1H-pyrazol-5-yl)benzoic acid], 1000 to 10000 nM.
Turning to `O=C(Nc1ccncn1)c1ccc(CN2C(=O)c3ccc(Cl)cc3NC(=O)[C@H]2Cc2cccnc2)cc1` [Example 4t, (R)-4-((8-chloro-2,5-dioxo-3-(pyridin-3-ylmethyl)-2,3-dihydro-1H-benzo[e][1,4]diazepin-4(5H)-yl)methyl)-N-(pyrimidin-4-yl)benzamide], the half-inhibitory concentration (IC50) was < 100 nM.
Take `CS(=O)(=O)Nc1ccc(CN2C(=O)c3ccc(Cl)cc3NC(=O)[C@H]2Cc2ccccn2)cc1` [Example 30a, (R)—N-(4-((8-Chloro-2,5-dioxo-3-(pyridin-2-ylmethyl)-2,3-dihydro-1H-benzo[e][1,4]diazepin-4(5H)-yl)methyl)phenyl)methanesulfonamide]: the IC50 is 10000 to 35000 nM.
As for `CN(C)C(=O)c1ccc(CN2C(=O)c3ccc(Cl)cc3NC(=O)[C@H]2Cc2cccnc2)cc1` [Example 13b, (R)-4-((8-chloro-2,5-dioxo-3-(pyridin-3-ylmethyl)-2,3-dihydro-1H-benzo[e][1,4]diazepin-4(5H)-yl)methyl)-N,N-dimethylbenzamide], the half-inhibitory concentration (IC50) lay within 10000 to 35000 nM.
As for `O=C(O)c1ccc(CN2C(=O)c3ccc(Cl)cc3NC(=O)[C@H]2Cc2ccccn2)cc1-c1cn[nH]c1` [Example 8r, (R)-4-((8-chloro-2,5-dioxo-3-(pyridin-2-ylmethyl)-2,3-dihydro-1H-benzo[e][1,4]diazepin-4(5H)-yl)methyl)-2-(1H-pyrazol-4-yl)benzoic acid], the figure is 100 to 999 nM; as for `COc1cnc(NC(=O)c2ccc(CN3C(=O)c4ccc(Cl)cc4NC(=O)[C@H]3Cc3cnccn3)cc2)nc1` [Example 5y, 4-((8-chloro-2,5-dioxo-3-(pyrazin-2-ylmethyl)-2,3-dihydro-1H-benzo[e][1,4]diazepin-4(5H)-yl)methyl)-N-(5-methoxypyrimidin-2-yl)benzamide], < 100 nM; as for `O=C(O)c1ccc(CN2C(=O)c3ccc(Cl)cc3NC(=O)[C@H]2Cc2ccccc2Cl)cc1` [Example 3i], 1000 to 10000 nM.
To `Cc1ccc(NC(=O)c2ccc(CN3C(=O)c4ccc(Cl)cc4NC(=O)[C@H]3CCN3CCN(C)CC3)cc2)nc1` [Example 10d, (R)-4-((8-chloro-3-(2-(4-methylpiperazin-1-yl)ethyl)-2,5-dioxo-2,3-dihydro-1H-benzo[e][1,4]diazepin-4(5H)-yl)methyl)-N-(5-methylpyridin-2-yl)benzamide] belongs 1000 to 10000 nM; to `O=C1Nc2cc(Cl)ccc2C(=O)N(Cc2ccc(CO)cc2)[C@@H]1Cc1ccccn1` [Example 41a, 8-Chloro-4-(4-(hydroxymethyl)benzyl)-3-(pyridin-2-ylmethyl)-3,4-dihydro-1H-benzo[e][1,4]diazepine-2,5-dione], 1000 to 10000 nM.
Consider `O=C(O)c1ccc(CN2C(=O)c3ccc(Cl)cc3NC(=O)[C@H]2Cc2ccc(F)cc2)cc1` [Example 3d], for which the IC50 was in the range of 1000 to 10000 nM.
To `Cc1cccc(NC(=O)c2ccc(CN3C(=O)c4ccc(Cl)cc4NC(=O)[C@H]3Cc3cccnc3)cc2)n1` [Example 4o, (R)-4-((8-chloro-2,5-dioxo-3-(pyridin-3-ylmethyl)-2,3-dihydro-1H-benzo[e][1,4]diazepin-4(5H)-yl)methyl)-N-(6-methylpyridin-2-yl)benzamide] belongs 10000 to 35000 nM.
Consider `O=C(Nc1ccccn1)c1ccc(CN2C(=O)c3ccc(Cl)cc3NC(=O)[C@H]2Cc2ccc(F)cc2)cc1` [Example 4i, (R)-4-((8-chloro-3-(4-fluorobenzyl)-2,5-dioxo-2,3-dihydro-1H-benzo[e][1,4]diazepin-4(5H)-yl)methyl)-N-(pyridin-2-yl)benzamide], for which the IC50 is < 100 nM.
On to `CC(C)(C)OC(=O)N1CCN(c2ccc(NC(=O)c3ccc(CN4C(=O)c5ccc(Cl)cc5NC(=O)[C@H]4Cc4ccccn4)cc3)nc2)CC1` [Example 4aw, (R)-tert-butyl 4-(6-(4-((8-chloro-2,5-dioxo-3-(pyridin-2-ylmethyl)-2,3-dihydro-1H-benzo[e][1,4]diazepin-4(5H)-yl)methyl)benzamido)pyridin-3-yl)piperazine-1-carboxylate], for which the concentration for half-maximal inhibition (IC50) was in the range of 100 to 999 nM.
For the compound `O=C(Nc1ccccn1)c1ccc(CN2C(=O)c3ccncc3NC(=O)[C@H]2Cc2cccnc2)cc1` [Example 35n], the IC50 was in the range of 100 to 999 nM.
`Cc1ccc(NC(=O)c2ccc(CN3C(=O)c4ccc(Cl)cc4NC(=O)[C@H]3Cc3ccsc3)cc2)nc1` [Example 35b]: the IC50 is < 100 nM.
In the case of `CC(C)c1ccc(NC(=O)c2ccc(CN3C(=O)c4ccc(Cl)cc4NC(=O)[C@H]3Cc3cccnc3)cc2)nc1` [Example 4at, (R)-4-((8-chloro-2,5-dioxo-3-(pyridin-3-ylmethyl)-2,3-dihydro-1H-benzo[e][1,4]diazepin-4(5H)-yl)methyl)-N-(5-isopropylpyridin-2-yl)benzamide], the IC50 is < 100 nM.
To `O=C1Nc2cc(Cl)ccc2C(=O)N(C[C@H]2CC[C@H](C(=O)N3CCCc4cccnc43)CC2)[C@@H]1Cc1ccccn1` [Example 4ch, (R)-8-chloro-3-(pyridin-2-ylmethyl)-4-(((1r,4R)-4-(1,2,3,4-tetrahydro-1,8-naphthyridine-1-carbonyl)cyclohexyl)methyl)-3,4-dihydro-1H-benzo[e][1,4]diazepine-2,5-dione] belongs 10000 to 35000 nM.
To `C[C@@H]1C(=O)Nc2cc(Cl)ccc2C(=O)N1Cc1ccc(C(=O)Nc2ccc(N3CCN(C(=O)OC(C)(C)C)CC3)cn2)cc1` [Example 4bg, (R)-tert-butyl 4-(6-(4-((8-chloro-3-methyl-2,5-dioxo-2,3-dihydro-1H-benzo[e][1,4]diazepin-4(5H)-yl)methyl)benzamido)pyridin-3-yl)piperazine-1-carboxylate] belongs 100 to 999 nM.
To `NC(=O)c1ccc(CN2C(=O)c3ccc(Cl)cc3NC(=O)[C@H]2Cc2cccnc2)cc1` [Example 13c, (R)-4-((8-chloro-2,5-dioxo-3-(pyridin-3-ylmethyl)-2,3-dihydro-1H-benzo[e][1,4]diazepin-4(5H)-yl)methyl)benzamide] belongs 1000 to 10000 nM.
